Target: Sodium-dependent serotonin transporter (Homo sapiens, UniProt P31645, W103C)
Assay: Decrease in [3H]5-HT uptake at human SERT W103C mutant transfected in HEK293 cells

Chain of Sodium-dependent serotonin transporter (P31645 whole entry W103C): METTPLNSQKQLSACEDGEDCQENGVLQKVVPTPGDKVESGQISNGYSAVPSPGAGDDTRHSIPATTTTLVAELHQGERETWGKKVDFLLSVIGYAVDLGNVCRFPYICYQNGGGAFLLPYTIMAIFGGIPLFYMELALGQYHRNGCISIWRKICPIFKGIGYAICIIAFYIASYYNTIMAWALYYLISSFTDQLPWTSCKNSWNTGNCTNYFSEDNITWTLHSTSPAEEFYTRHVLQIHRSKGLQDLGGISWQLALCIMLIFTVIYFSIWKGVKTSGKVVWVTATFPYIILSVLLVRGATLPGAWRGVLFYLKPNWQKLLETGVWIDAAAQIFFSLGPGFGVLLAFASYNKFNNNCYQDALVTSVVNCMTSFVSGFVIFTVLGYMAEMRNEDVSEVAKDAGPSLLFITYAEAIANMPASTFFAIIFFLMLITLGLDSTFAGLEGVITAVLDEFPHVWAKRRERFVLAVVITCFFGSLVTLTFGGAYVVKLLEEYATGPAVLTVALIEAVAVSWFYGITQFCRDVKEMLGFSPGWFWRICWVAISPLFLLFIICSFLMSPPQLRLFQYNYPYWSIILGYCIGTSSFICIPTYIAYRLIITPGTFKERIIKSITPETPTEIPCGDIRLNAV

| SMILES | EC50 [µM] |
| --- | --- |
| C[n+]1ccc(-c2ccc(SS(C)(=O)=O)cc2)cc1 | 31.6 |
| C[N+](C)(C)CCSS(C)(=O)=O | 501 |

Source: BindingDB's records for doi:10.1016/j.bmc.2006.09.058 (Purdue University, 2007)
